Laboratory results reported in patent US9504663B2, “Composition for the treatment of cystic fibrosis” (SciPharm SaRL, priority 2011, dated 2016).
Entries after “also recorded” stand apart in the source; their conditions may differ.

Columns and labels:
[1] = system: cystic fibrosis transmembrane conductance regulator/Cl- channel (CFTR); assay: Whole cell patch clamp of treprostinil-induced Cl- currents through CFTR, Example 3; assay type: cell-based, human; settings: for effect on treprostinil-induced CFTR current of adding PDE4 inhibitor: added on top of treprostinil
Description: The following human bronchial epithelial cell lines were obtained through ATCC: BEAS-2B (ATCC CRL-9609), NuLi-1 (ATCC CRL-4011), IB3-1 (ATCC CRL-2777), CuFi-1 (ATCC CRL-4013). Cells were propagated using the culture conditions outlined in the ATCC recommendations, e.g., I3B-1 cells were maintained on dishes coated with fibronectin (10 μg/m) rat collagen I (30 μg/ml) and BSA 10 μg/mL) in LHC-8 medium (Gibco) containing 5% fetal calf serum (FCS) at 37° C. in a 5% CO2 humified atmosphere. BEAS-2B cells were maintained at 37° C. in a 5% CO2 humified atmosphere on dishes precoated with collagen IV (60 μg/ml in 0.25% acetic acid) in BEGM medium (Lonza); the GA-1000 (gentamycin-amphotericin B mix) provided with the BEGM kit was not added to the medium. The level of endogenous expression of CFTR was too low to obtain a reliable signal. Accordingly, BEAS-2B cells were transiently transfected with a plasmid driving the expression of human GFP-tagged wild type CFTR by using Lipofectamine Plus® (Invitrogen) according to the instructions of the manufacturer. Cells expressing this GFP-tagged CFTR were identified by fluorescence microscopy and subjected to patch clamp recordings as outlined below. The whole cell patch clamp technique was used for current recordings performed at 22±1.5° C. using an Axoclamp 200B patch clamp amplifier (Axon Instruments). Pipettes had resistances between 1 and 2 MO when filled with the recording pipette solution (composition: 110 mM CsCl, 5 mM EGTA, 2 mM MgCl2, 1 mM K2.ATP, 10 mM Hepes, pH adjusted to 7.2 with CsOH). Voltage-clamp protocols and data acquisition were performed with […] 6.0 software (Axon Instruments). Data were low-pass filtered at 2 kHz (-3 dB) and digitized at 10-20 kHz. Cells were continuously superfused with external solution (composition: 145 mM NaCl, 4.5 mM KCl, 2 mM CaCl2, 1 mM MgCl2, 5 mM glucose, 10 mM Hepes, pH adjusted to 7.4 with NaOH). When indicated, the external solution contained Treprostinil (10 μM) or forskolin (5 μM), switching between solutions was achieved by electronically controlled pressure valves.

IB3-1 cells [2] = assay: Forskolin-triggered [3H]cAMP accumulation in IB3-1 cells with PDE inhibitors; assay type: cell-based, human; settings: 5 μM forskolin
Description: IB3-1 cells were seeded onto PDL-coated wells of 6-well plates (2 to 2.5*10^5 cells/well) in complete growth medium (LHC-8+5% FCS). On the following day, the cellular adenine nucleotide pool was metabolically labelled by incubation with [^3H]adenine (1 μCi/well) in Dulbecco's Modified Eagle Medium (DMEM) in the presence of adenosine deaminase (5 μg/ml) for 4 h. Subsequently, the medium was replaced with fresh DMEM and the formation of cAMP was stimulated by addition of 5 μM forskolin, a direct activator of the adenylyl cyclase, or 10 μM treprostinil in the absence and presence of different concentrations of the following phosphodiesterase (PDE) inhibitors: ibudilast (0.3-1000 μM), Ro-20-1724 (0.03-300 μM), roflumilast (1 nM-10 μM), dipyridamole (0.01-100 μM), aminone (1, 10, 100 μM), anagrelide (1, 10, 100 μM), enoximone (1, 10, 100 μM), milrinone (1, 10, 100 μM) and cilostazol (0.1 to 100 μM) for 20 min at 37° C. In some instances, the effect of these inhibitors on basal cAMP accumulation was examined by incubating cells in the absence of any additional stimulus with increasing concentrations of PDE-inhibitors (i.e., dipyridamole, ibudilast and Ro-20-1724 at 1, 10 and 100 μM; roflumilast at and 0.1, 1 and 10 μM of Roflumilast). Concentration-response curves for treprostinil were obtained by adding treprostinil (0.1 to 30 μM) alone or in combination with 100 μM Ro-20-1724, 100 μM ibudilast or 5 μM roflumilast. The reaction performed in triplicate was stopped by adding 2.5% perchloric acid together with 0.1 mM (unlabelled) cAMP. [^3H]cAMP was isolated by sequential chromatography on Dowex 50W-X4 and neutral alumina columns. The formation of [^3H]cAMP was quantified by liquid scintillation counting.

IB3-1 cells [3] = assay: Treprostinil-induced [3H]cAMP accumulation in IB3-1 cells with or without PDE inhibitors; assay type: cell-based, human; settings: for accumulation of cAMP with PDE3 inhibitors: in experiments
Description: IB3-1 cells were plated on 6 well-plates (0.2*10^6 cells/well in FIG. 1; 0.4*10^6 cells in FIG. 2) in complete growth medium (LHC-8+5% FCS). The following day, the adenine nucleotide pool was metabolically labeled by incubation with [3H]adenine (1 μCi/well) in Dulbecco's Modified Eagle Medium (DMEM) containing adenosine deaminase (1 unit/ml) for 4 h. Thereafter the medium was replaced with fresh medium; the cells were stimulated by sole addition of Treprostinil (in logarithmically spaced concentrations ranging from 0.1 to 30 μM) or of Treprostinil in combination with the indicated concentrations of PDE-inhibitors. After an incubation of 30 min, the cells were lysed by the addition of perchloric acid. The formation of [3H]cAMP was determined by sequential chromatography on Dowex 50WX-4 and neutral alumina columns followed by liquid scintillation counting of the eluate. The assay was performed in triplicate. IB3-1 cells were seeded onto PDL-coated wells of 6-well plates (2 to 2.5*10^5 cells/well) in complete growth medium (LHC-8+5% FCS). On the following day, the cellular adenine nucleotide pool was metabolically labelled by incubation with [^3H]adenine (1 μCi/well) in Dulbecco's Modified Eagle Medium (DMEM) in the presence of adenosine deaminase (5 μg/ml) for 4 h. Subsequently, the medium was replaced with fresh DMEM and the formation of cAMP was stimulated by addition of 5 μM forskolin, a direct activator of the adenylyl cyclase, or 10 μM treprostinil in the absence and presence of different concentrations of the following phosphodiesterase (PDE) inhibitors: ibudilast (0.3-1000 μM), Ro-20-1724 (0.03-300 μM), roflumilast (1 nM-10 μM), dipyridamole (0.01-100 μM), aminone (1, 10, 100 μM), anagrelide (1, 10, 100 μM), enoximone (1, 10, 100 μM), milrinone (1, 10, 100 μM) and cilostazol (0.1 to 100 μM) for 20 min at 37° C. […] The formation of [^3H]cAMP was quantified by liquid scintillation counting.

rabbit erythrocytes = settings: cited from earlier work
human erythrocytes = settings: cited from earlier work
CFTR-wt = assay: Whole cell patch clamp of Cl- current in IB3-1 cells transiently expressing GFP-tagged wild type CFTR; assay type: cell-based, human
Description: The whole cell patch clamp technique was used for current recordings performed at 22±1.5° C. using an Axoclamp 200B patch clamp amplifier (Axon Instruments). Pipettes had resistances between 1 and 2 MΩ when filled with the recording pipette solution (composition: 110 mM CsCl, 5 mM EGTA, 2 mM MgCl2, 1 mM K2.ATP, 10 mM Hepes, pH adjusted to 7.2 with CsOH). […] Data were low-pass filtered at 2 kHz (-3 dB) and digitized at 10-20 kHz. Cells were continuously superfused with external solution (composition: 145 mM NaCl, 4.5 mM KCl, 2 mM CaCl2, 1 mM MgCl2, 5 mM glucose, 10 mM Hepes, pH adjusted to 7.4 with NaOH). When indicated, the external solution contained Treprostinil (10 μM) or forskolin (5 μM), switching between solutions was achieved by electronically controlled pressure valves. IB3-1 cells were grown on dishes (Nunc, 3.5 cm diameter) covered with fibronectin (10 μg/mL) rat collagen I (30 μg/mL) and BSA 10 μg/mL) in LHC-8 medium (Gibco) containing 5% fetal calf serum (FCS). Cells were transiently transfected with a plasmid driving the expression of human GFP-tagged wild type CFTR by using Lipofectamine Plus® (Invitrogen) according to the instructions of the manufacturer. […] A transiently transfected IB3-1 cell expressing GFP-tagged wild type CFTR was selected under fluorescent light and clamped to a holding potential at -40 mV. Depolarization was induced by a voltage step to +60 mV for 50 ms and the current amplitude was recorded. Wash-in of Treprostinil (10 μM final concentration, TP) was initiated at the time point 50 s and terminated at 125 s. Forskolin was washed in at 275 s and was removed at 375 s.

[4] = aerosolised; patient with cystic fibrosis and secondary pulmonary hypertension; cited from earlier work

O=C(Nc1c(Cl)cncc1Cl)c1ccc(OC(F)F)c(OCC2CC2)c1 [Roflumilast, 3-(cyclopropylmethoxy)-N-(3,5-dichloropyridin-4-yl)-4-(difluoromethoxy)benzamide]
effect on treprostinil-induced CFTR current of adding PDE4 inhibitor [1]: additional increase of the current
enhancement of the cAMP accumulation triggered by forskolin (IB3-1 cells [2]): substantially enhanced
relative potency as inhibitor, forskolin-triggered cAMP accumulation (IB3-1 cells [2]): most potent inhibitor

O=C1CCc2cc(OCCCCc3nnnn3C3CCCCC3)ccc2N1 [Cilostazol]
accumulation of cAMP with PDE3 inhibitors (IB3-1 cells [3]): did not induce any accumulation of cAMP

O=C1CN2Cc3c(ccc(Cl)c3Cl)N=C2N1 [Anagrelide]
accumulation of cAMP with PDE3 inhibitors (IB3-1 cells [3]): did not induce any accumulation of cAMP

CCCCC[C@H](O)CC[C@@H]1[C@H]2Cc3cccc(OCC(=O)[O-])c3C[C@H]2C[C@H]1O.[Na+] [Treprostinil, (1R,2R,3aS,9aS)-[[2,3,3a,4,9,9a-hexahydro-2-hydroxy-1-[(3S)-3-hydroxyoctyl]-1H-benz[f]inden-5-yl]oxy]acetic acid monosodium salt]
receptor-mediated cAMP synthesis and ATP release (rabbit erythrocytes): stimulate
activation of CFTR (outward current) ([1]; voltage jumps from −20 to −80 mV): sustained activation of CFTR
receptor-mediated cAMP synthesis and ATP release (human erythrocytes): stimulate
activation of the current (CFTR) (CFTR-wt; 10 μM Treprostinil, depolarization from −40 mV holding potential to +60 mV, monosodium salt): robust activation; also recorded: can activate CFTR
time for current to decay to basal after washout (CFTR-wt; 10 μM treprostinil): ~100 s

CC#CCC(C)[C@H](O)/C=C/[C@@H]1[C@H]2C/C(=C/CCCC(=O)O)C[C@H]2C[C@H]1O (stereo partly drawn) [Iloprost, 5-{(E)-(1S,5S,6R,7R)-7-hydroxy-6-[(E)-(3S,4RS)-3-hydroxy-4-methyl-1-octen-6-inyl]-bi-cyclo[3.3.0]octan-3-ylidene}pentanoic acid]
pulmonary artery pressure [4]: effective in lowering pulmonary artery pressure

CCCCOc1cc(CC2CNC(=O)N2)ccc1OC (centres unmarked) [RO20-1724]
effect on treprostinil-induced CFTR current of adding PDE4 inhibitor [1]: additional increase of the current
enhancement of the cAMP accumulation triggered by forskolin (IB3-1 cells [2]): substantially enhanced
relative efficacy, forskolin-triggered cAMP accumulation (IB3-1 cells [2]; compared with roflumilast): more effective than roflumilast

OCCN(CCO)c1nc(N2CCCCC2)c2nc(N(CCO)CCO)nc(N3CCCCC3)c2n1 [dipyridamole]
efficacy in treprostinil-triggered cAMP accumulation (IB3-1 cells [3]; 10 μM treprostinil): higher efficacy
enhancement of the cAMP accumulation triggered by forskolin (IB3-1 cells [2]): substantially enhanced
relative potency as inhibitor, forskolin-triggered cAMP accumulation (IB3-1 cells [2]): less potent inhibitor
